Where two headings read alike, the source gives them in different places.
How the values were obtained:
[1] = mouse liver microsomes; usual value of control compound; cited from earlier work
in vitro = in vitro ADME, mouse; conditions: male, CD-1, mouse
Description: (§1) Working stocks were initially diluted to a concentration of 40 μM in 0.1 M potassium phosphate buffer before addition to the reaction vials. Pooled mouse (CD-1, male) or human (50 donors) liver microsomes were utilized at a final concentration of 0.5 mg/mL. Duplicate wells were used for each time point (0 and 30 minutes). Reactions were carried out at 37°C in a shaker, and the final concentration of DMSO was kept constant at 0.01%. The final volume for each reaction was 100 μL, which included the addition of an NADPH-Regeneration solution (NRS) mix. The NRS mix was comprised of glucose 6-phosphate dehydrogenase (0.4 U/mL), NADP+ (1.3 mM), MgCl2 (3.3 mM), and glucose 6-phosphate (3.3 mM) in assay mixtures. Upon completion of the 30-minute time point, reactions were terminated by the addition of 1.5-volumes (150 μL) of ice-cold acetonitrile with 0.5% formic acid and internal standard. Samples were then centrifuged at 4,000 rpm for 10 minutes to remove debris and precipitated protein. Approximately 150 μL of supernatant was subsequently transferred to a new 96-well microplate for LC-MS analysis. Narrow-window mass extraction LC-MS analysis was performed for all samples using a Waters Xevo quadrupole time-of-flight (QToF) mass spectrometer and an ACQUITY UPLC system, to determine relative peak areas of parent compound.

[2] = human liver microsomes; usual value of control compound; cited from earlier work
[3] = human liver microsomal stability assay; assay type: in vitro ADME; conditions: human liver microsomes, 30-minute incubation, 1 μM
Description: as §1

[4] = test system: BT147 orthotopic xenograft; assay: Kaplan-Meier survival, orthotopic BT147 xenograft; assay type: in vivo; conditions: BT147 xenografted mice; pacritinib 100 mg/kg, TMZ 30 mg/kg, oral, thrice weekly for five weeks; control 52 days
Description: For Kaplan-Meier survival studies, BTIC spheres from BT53 or BT147 were dissociated to a single-cell suspension. Mice were anaesthetized using 10 mg/kg ketamine/xylazine. Buprenorphine (0.05 mg/kg) was administered once pre-operatively and once post-operatively to minimize animal suffering. 5 x 10^4 cells were stereotactically implanted into the right striata of 8- to 10-week-old female severe combined immunodeficient (SCID) mice, as previously described and approved by the University of Calgary Health Sciences Animal Care Committee, accredited by CCAC. Mice were randomized to vehicle or treatment cohorts, with a minimum of 8 mice per group, one week after cell implantation. For BT147, vehicle (Ora-Plus; Galenova), pacritinib (100 mg/kg), TMZ (30 mg/kg), or a combination of pacritinib (100 mg/kg) and TMZ (30 mg/kg), were administered via oral gavage. Animals completed a five-week regimen of three weekly treatments for a total of 15 treatments. For BT53, 100 mg/kg of pacritinib was administered twice per day alone or in combination with 50 mg/kg TMZ once per day, for one week via oral gavage. Following this, mice received 100 mg/kg pacritinib twice per day in combination with 10 mg/kg TMZ once per day for two weeks. Mice were euthanized with a lethal dose of sodium pentobarbital at a pre-defined humane endpoint. Specific criteria for the endpoint included: 20% weight loss, lack of grooming, inactivity, hind limb paralysis, and/or inability to eat or drink. The body weights were closely monitored throughout the course of the experiment. […] The presence of tumor was confirmed in the mice via necropsy and cranial dissection.

[5] = test system: BT53 orthotopic xenograft; assay: Kaplan-Meier survival, orthotopic BT53 xenograft; assay type: in vivo, mice; conditions: BT53; combination p < 0.0023, TMZ alone p < 0.0229, log-rank
Description: For Kaplan-Meier survival studies, BTIC spheres from BT53 or BT147 were dissociated to a single-cell suspension. Mice were anaesthetized using 10 mg/kg ketamine/xylazine. Buprenorphine (0.05 mg/kg) was administered once pre-operatively and once post-operatively to minimize animal suffering. 5 x 10^4 cells were stereotactically implanted into the right striata of 8- to 10-week-old female severe combined immunodeficient (SCID) mice, as previously described and approved by the University of Calgary Health Sciences Animal Care Committee, accredited by CCAC. Mice were randomized to vehicle or treatment cohorts, with a minimum of 8 mice per group, one week after cell implantation. For BT147, vehicle (Ora-Plus; Galenova), pacritinib (100 mg/kg), TMZ (30 mg/kg), or a combination of pacritinib (100 mg/kg) and TMZ (30 mg/kg), were administered via oral gavage. Animals completed a five-week regimen of three weekly treatments for a total of 15 treatments. For BT53, 100 mg/kg of pacritinib was administered twice per day alone or in combination with 50 mg/kg TMZ once per day, for one week via oral gavage. Following this, mice received 100 mg/kg pacritinib twice per day in combination with 10 mg/kg TMZ once per day for two weeks. […] The body weights were closely monitored throughout the course of the experiment. […]

p-STAT3 Y705 = assay: western blotting of activated STAT3 in BTICs; assay type: cell-based, human; conditions: BT53, 48 hours; 1 μM pacritinib, 10 μg/mL TMZ or both
Description: BTIC spheres were enzymatically dissociated as described above and plated at 10^6 cells/2 mL of media. Cells were treated with vehicle (DMSO), pacritinib, TMZ, or a combination of pacritinib and TMZ and pelleted at select time points (3, 24, and 48 hours). For protein extraction, BTICs were lysed in modified radio-immunoprecipitation assay buffer supplemented with Complete Mini protease (Roche) and Halt phosphatase (Thermo Scientific) inhibitor cocktails. Protein concentrations were quantified using the BioRad protein assay; 20 μg of protein were loaded on 6% or 10% sodium dodecyl sulfate polyacrylamide gel electrophoresis (SDS PAGE) gels and transblotted to nitrocellulose membranes. Blots were stained with primary antibodies followed by horseradish peroxidase-conjugated secondary antibodies. Primary antibodies included p-STAT3 Y705 (1:1000; Cell Signaling Technology), STAT3 (1:1000; Cell Signaling Technology), p-Akt S473 (1:1000; Cell Signaling Technology), Akt (1:1000; Cell Signaling Technology), p-p44/42 MAPK (T202/Y204) (1:1000; Cell Signaling Technology), p44/42 MAPK (1:4000; Cell Signaling Technology), poly (ADP-ribose) polymerase (1:1000; Cell Signaling Technology), β-tubulin (1:1000; Cell Signaling Technology), and Actin (1:1000; Santa Cruz Biotechnology). Secondary antibodies included donkey anti-mouse (1:5000; Cell Signaling Technology), donkey anti-goat (1:5000; Millipore), and goat anti-rabbit (1:5000; Cell Signaling Technology). The blots were washed with tris-buffered saline and tween 20 (T-TBS) (50mM Tris, 150mM NaCl, 0.05% Tween 20, pH 7.6) and blocked with tris-buffered saline (TBS) before imaging. Bands were visualized with the SuperSignal West Pico chemiluminescent solution (Thermo Scientific) and an Amersham™ Imager 600 (General Electric).

[6] = test system: patient-derived GBM BTIC cultures; assay: alamarBlue viability assay, panel of BTIC cultures; conditions: 10 μg/mL TMZ
Description: Accumax (eBioscience) was used to enzymatically dissociate BTIC spheres to single cells. Cells were seeded at 1000 cells per well in 96-well plates and treated with vehicle (DMSO) or drug, 24 hours after plating. BTIC viability was assessed after 7–14 days, once spheres were formed in control wells, by performing the alamarBlue™ (Invitrogen) assay per the manufacturer’s instructions. In brief, the alamar dye was added to each well and plates were read 6 hours later. Fluorescence intensity (excitation 540 nm; emission 590 nm) was measured on a SpectraMax M Series Multi-Mode Microplate reader. […] All experiments were performed in triplicate with a minimum of 3 wells per condition.
BTICs were treated with suboptimal doses of 1 μM pacritinib (CTI Biopharma), 10 μg/mL TMZ (Sigma), or a combination of pacritinib and TMZ. […] Percent inhibition was determined by normalizing each well to the control well (0.1% DMSO).

Structure (SMILES): Cc1cc(=O)n(-c2ccccc2)n1C [Antipyrine]
- Usual value (% remaining) [1]: Usual value: >90%
- remaining at 0.5 h, 1 μM (in vitro; microsomes, % Remaining): 96.5%

Structure (SMILES): COc1ccc2c(c1)[C@]13CCCC[C@@H]1[C@H](C2)N(C)CC3 [DXM]
- Usual value (% remaining) [2]: Usual value: 72 ± 10%
- % Remaining [3]: 75.0%

Structure (SMILES): CC(C)NCC(O)COc1cccc2ccccc12 (centres unmarked) [Propranolol]
- Usual value (% remaining) [1]: Usual value: <20%
- remaining at 0.5 h, 1 μM (in vitro; liver microsomes, mouse liver microsomes, 30-minute incubation, 1 μM, read-out: % Remaining): 9.6%

Structure (SMILES): Cn1nnc2c(C(N)=O)ncn2c1=O [TMZ, temozolomide]
- median survival [4]: 58 days
- survival advantage over the control, combination study [5]: significant survival advantage over the control arm
- p-STAT3 Y705 (p-STAT3 Y705): dramatic increase in p-STAT3 Y705
- sensitivity of MGMT unmethylated BTIC cultures ([6]; representative BT12): largely resistant to TMZ
- sensitivity of MGMT methylated BTIC cultures ([6]; representative BT67 and BT69): highly sensitive to TMZ
